The values that follow are results of earlier work, collected in patent US12274284B2, “High-energy food supplement based on inverted sugars and ergogenic products for use in physical activity and method for producing same” (priority 2019, dated 2025).

Read-outs that look alike come from different tables or passages of the source. Bounds are passed on as bounds.

The conditions of series [1]: oral administration.
For series [2] the following is noted: 1 to 6 g/day for a maximum of six months.
For series [3] the following is noted: 300 mg/day.
In series [4] the test system is oxidative stress markers. The settings on record: 300 mg/kg, 15 days, mice.
The subject of series [5] is action of insulin. The note with it: 5%, 8 weeks, mice.
Experiment in series [6]: not given
The source holds these as a separate data set.

The subject of series [7] is muscle carnosine concentrations. The settings on record: 4-6 g/day.

In the case of `Cn1c(=O)c2c(ncn2C)n(C)c1=O` [Caffeine, 1,3,7 trimethylxanthine], in series [1], the bioavailability result is “approximately 100%”.
In the case of `C[N+](C)(C)C[C@H](O)CC(=O)[O-]` [carnitine, L-carnitine], in series [2], the “adverse effect or intoxication” value is reported as “no adverse effect or intoxication” and the “plasma concentrations of carnitine” value is listed as “considerably improved the plasma concentrations of carnitine”.
As for `COC1=C(OC)C(=O)C(C/C=C(\C)CC/C=C(\C)CC/C=C(\C)CC/C=C(\C)CC/C=C(\C)CC/C=C(\C)CC/C=C(\C)CC/C=C(\C)CC/C=C(\C)CCC=C(C)C)=C(C)C1=O` [coenzyme Q10], the “feeling of tiredness and physical performance during effort tests” value in series [3] was “reduced the feeling of tiredness and improved physical performance”.
For `CC(=O)C(=O)O` [pyruvate, calcium pyruvate], the “patients with a fat loss” value (0.05 g/Kg/day after 0.1 g/kg/day for 10 days, 13 to 38 days) is 79.6%. For the setting “in vivo”, the “patients with a reduction in skinfolds” value is 89.8% and the “patients with a reduction in the abdomen circumference” value is 74%.
On to `NCCS(=O)(=O)O` [taurine, 2-aminoethanesulfonic acid], for which the “superoxide radicals, lipid peroxidation, carbonylation” value in series [4] is “reduced the production of superoxide radicals, lipid peroxidation, and carbonylation”. In series [5], the “action of insulin in liver and skeletal muscle” value is “boosted the action of insulin in the liver and the skeletal muscle”.
For `O=C1O[C@H]([C@@H](O)CO)C(O)=C1O` [vitamin C], in series [6] (400 mg/day), the “tissue concentration of the vitamin” value is “increased the tissue concentration of the vitamin”.
`NCCC(=O)O` [β-alanine]: the “increase in muscle carnosine concentrations” value in series [7] (after 10 weeks) is reported as 80%; in series [7] (following 4 weeks) it was no more than 64%.
Regarding vitamin E, the “blood plasma concentration of a protein associated with muscle injury” value in series [6] (1000 UI/day) is “reduced the concentration of a protein associated with muscle injury in the blood plasma”.
